The text below walks through data of article PMC3069647 (Journal of medicinal chemistry, 2011).

Data set [1] deals with T1, human Pgp (Homo sapiens, UniProt P08183). The data set is described as follows: Inhibition of Pgp-mediated Rhodamine 123 efflux in L5178 MDR1 cells. The following applies: mouse T lymphoma L5178 MDR1 cells.
For data set [2], the target named is T1, human Pgp.
Data set [3] concerns human Pgp. The data set is described as follows: Inhibition of Pgp-mediated Rhodamine 123 efflux in L5178 MDR1 cells. The following applies: mouse T lymphoma L5178 MDR1 cells.
The test system of another data set is Pgp. The conditions noted are these: cited from earlier work.

T1 sequence (P08183 whole entry): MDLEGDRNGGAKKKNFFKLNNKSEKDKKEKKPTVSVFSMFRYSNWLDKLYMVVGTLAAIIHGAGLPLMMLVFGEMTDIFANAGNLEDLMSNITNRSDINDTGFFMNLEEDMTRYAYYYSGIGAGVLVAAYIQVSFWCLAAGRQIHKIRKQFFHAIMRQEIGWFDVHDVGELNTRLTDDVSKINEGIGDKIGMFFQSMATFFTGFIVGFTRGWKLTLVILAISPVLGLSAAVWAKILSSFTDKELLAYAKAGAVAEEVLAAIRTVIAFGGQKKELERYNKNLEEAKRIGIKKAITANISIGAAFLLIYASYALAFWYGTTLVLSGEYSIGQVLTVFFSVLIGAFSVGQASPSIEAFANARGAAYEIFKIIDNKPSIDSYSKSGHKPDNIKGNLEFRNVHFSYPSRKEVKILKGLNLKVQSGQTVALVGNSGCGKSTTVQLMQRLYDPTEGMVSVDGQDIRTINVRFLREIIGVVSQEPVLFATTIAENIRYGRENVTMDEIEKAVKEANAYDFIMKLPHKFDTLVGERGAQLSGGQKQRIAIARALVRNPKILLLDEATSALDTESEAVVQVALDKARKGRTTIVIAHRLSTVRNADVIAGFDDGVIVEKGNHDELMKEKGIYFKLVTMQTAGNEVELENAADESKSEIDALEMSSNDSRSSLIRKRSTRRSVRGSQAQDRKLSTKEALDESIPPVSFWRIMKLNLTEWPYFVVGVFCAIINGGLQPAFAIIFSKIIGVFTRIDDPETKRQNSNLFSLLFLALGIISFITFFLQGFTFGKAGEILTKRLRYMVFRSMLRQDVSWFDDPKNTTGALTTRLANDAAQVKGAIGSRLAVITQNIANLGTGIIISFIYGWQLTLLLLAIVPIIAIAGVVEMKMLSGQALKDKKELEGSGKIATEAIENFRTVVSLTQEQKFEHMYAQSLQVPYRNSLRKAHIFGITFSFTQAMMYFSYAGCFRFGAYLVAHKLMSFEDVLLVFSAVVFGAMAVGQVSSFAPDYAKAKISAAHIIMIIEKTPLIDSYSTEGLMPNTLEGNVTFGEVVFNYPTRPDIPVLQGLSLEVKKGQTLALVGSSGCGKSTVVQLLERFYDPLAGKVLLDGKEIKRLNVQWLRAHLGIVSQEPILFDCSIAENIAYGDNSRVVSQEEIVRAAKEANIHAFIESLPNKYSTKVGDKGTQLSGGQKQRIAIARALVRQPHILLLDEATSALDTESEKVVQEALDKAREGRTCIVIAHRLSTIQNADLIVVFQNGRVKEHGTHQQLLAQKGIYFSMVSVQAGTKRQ

Regarding `CCN(CC)CCCN(c1ccccc1)C1Cc2ccccc2C1` [Aprindine], the “Ability to inhibit Pgp-mediated cell efflux of R123 (in words)” value on human Pgp [1] is recorded as “weak inhibitors”.
In general, IC50 refers to the concentration that inhibits the measured activity by half. High values mean a need for much substance, low ones inhibition by little substance. For the compound `[Na+].[Na+].[Na+].[O]=[V]([O-])([O-])[O-]` [Vi, Sodium orthovanadate], the 50% inhibitory concentration (IC50) against human Pgp [2] is around 700 µM.
Take `O=C1CCc2ccc(OCCCCN3CCN(c4cccc(Cl)c4Cl)CC3)cc2N1` [Aripiprazole]: in the data set on human Pgp [3], the “Ability to inhibit Pgp-mediated cell efflux of R123 (in words)” value is “efficacious Pgp inhibitors”.
Consider `CN(C)CCC=C1c2ccccc2CCc2ccccc21` [Amitriptyline], for which the Pgp inhibitor classification result in the data set with Pgp is given as “inhibitor”.
As to `CC1(C)S[C@@H]2[C@H](NC(=O)[C@H](C(=O)O)c3ccsc3)C(=O)N2[C@H]1C(=O)O` [Ticarcillin], the “Ability to inhibit Pgp-mediated cell efflux of R123 (in words)” value at human Pgp [1] is “not effective”.
With `CC(C)[C@H]1CC[C@H](C(=O)N[C@H](Cc2ccccc2)C(=O)O)CC1` [Nateglinide], the “Ability to inhibit Pgp-mediated cell efflux of R123 (in words)” value at human Pgp [1] was “not effective”.
As to `O=C1Cc2cc(CCN3CCN(c4nsc5ccccc45)CC3)c(Cl)cc2N1` [Ziprasidone], the “Ability to inhibit Pgp-mediated cell efflux of R123 (in words)” value on human Pgp [1] was “weak inhibitors”.
On to `C=CCc1ccccc1OCC(O)CNC(C)C` (centres unmarked) [Alprenolol], for which the “Ability to inhibit Pgp-mediated cell efflux of R123 (in words)” value on human Pgp [1] is on record as “not effective”.
